According to patent US12564636B2, “Pnictogen-containing heterocyclic compounds and their use” (University of Rhode Island Board of Trustees, priority 2022, dated 2026):

Tests used:
Type in all cases: physicochemical
[1] = Stability in D2O observed by 1H NMR; conditions: r.t.
Text: 1H NMR (400 MHz, D2O) δ 8.08−7.98 (m, 2H), δ 7.92−7.85 (m, 2H), 4.41 (s, 6H), 3.75 (s, 3H).

[2] = Second order reaction rate constant of CAP compound with GSH (UV-Vis kinetics)
Method: (§1) In a typical experiment, an aliquot of the stock solution of CAP1-a in water was added to nucleophile in PIPES buffer or water. The progress of the reaction was monitored by UV-Vis spectrometer at suitable wavelength. The pseudo first order reaction rate constant was determined by plotting the ln value of the concentration of CAP1-a against the reaction time. The pseudo first order reaction rate constant thus obtained was plotted against the concentration of the nucleophile. The slope of this linear correlation is the second order reaction rate constant. CAP1-a was reacted separately with GSH, cysteine, N-acetylcysteine, and phenol.
Following the study above, compounds CAP1-F, CAP2, and CAP4 each were reacted with either GSH or phenol in water or 50 mM PIPES at pH 7.
In another study, compounds CAP1-b, CAP1-F, CAP2, CAP3, CAP4, and CAP5 each were reacted with either GSH in a 50 mM PIPES and 150 mM KCl aqueous solution at pH 7 and 25° C. […] The reaction between CAP5 and GSH has a k2 as high as 3.2×10^5 M^−1·S^−1, 7×10^9 folds faster than its reaction with water under the same conditions. […] S^−1.

[3] = Second order reaction rate constant of CAP compound with cysteine (UV-Vis kinetics); conditions: similar reaction conditions (25° C., pH 7, 50 mM PIPES)
Method: as §1

[4] = Reaction of CAP compound with water (hydrolysis rate, stability in water)
Method: as §1
On the other hand, the reaction between CAP4 and water is very slow, showing a k2 of only 4.8−10^−6 M^−1·S^−1 at 25° C. and pH 7 in 50 mM PIPES.

[5] = 50 mM PIPES and 150 mM KCl aqueous solution, pH 7, 25° C.

SMILES	second order reaction rate constant (k2), reaction with GSH [2, 5]	second order reaction rate constant (k2), reaction with GSH ([2]; 25° C., pH 7, 50 mM PIPES)	further results
Cn1c(S(C)(=O)=O)[n+](C)c2ccccc21 [CAP23, 1,3-dimethyl-2-(methylsulfonyl)-1H-benzo[d]imidazol-3-ium tetrafluoroborate]			stability in D2O [1]: moderate stability; time after which the compound is completely hydrolyzed in D2O [1]: 12 h
C[n+]1c(Cl)cccc1S(C)(=O)=O [CAP5, 2-Chloro-1-methyl-6-(methylsulfonyl)pyridin-1-ium tetrafluoroborate]	3.2×10^5 M^−1·S^−1		
C[n+]1ccccc1S(C)(=O)=O [CAP4, N-methyl-2-(methylsulfonyl)pyridinium tetrafluoroborate]	1.2×10^5 M^−1·S^−1	5.3×10^4 M^−1·S^−1	
C[n+]1ccc(S(C)(=O)=O)cc1 [CAP3, N-Methyl-4-(methylsulfonyl)pyridinium tetrafluoroborate]	9.8×10^3 M^−1·S^−1		
C[n+]1ccccc1F.[I-] [CAP1-a, N-methyl-2-fluoropyridinium iodide]		1.2×10^2 M^−1·S^−1	second order reaction rate constant (k2), reaction with cysteine [3]: 2.8×10^2 M^−1·S^−1; second order reaction rate constant (k2), reaction with water ([4]; CAP1-a and water): 4.5×10^−6 M^−1 S^−1; stability in water (in words) ([4]; inferred from slow reaction with water): high stability
C[n+]1ccccc1F [CAP1-b, N-methyl-2-fluoropyridinium tetrafluoroborate]	1.2×10^2 M^−1·S^−1		
